Assay results from a melting point compilation (Tetko et al.; mined from patent text by program, amines drawn as free bases though some values may be those of a salt).

Row | Structure (SMILES) | melting point
1 | CC(C)(C)[C@H](NC(=O)CCC1c2ccccc2-c2ccccc21)C(=O)O | 79 to 83 °C
2 | CCOC(=O)C1=C(C)NC(C)=C(C(=O)OCC)C1c1ccccc1C | 128 to 130 °C
3 | COC(=O)CCCNC(=O)N1CCN(c2cc3c(cc2F)c(=O)c(C(=O)O)cn3C2CC2)CC1 | 198 to 200 °C
4 | CC1CC(C)N(CCCNC(=O)CN2CCCC2=O)C(C)(C)C1 (stereo unspecified) | 85 to 87 °C
5 | CC(C)(C)OC(=O)CN1C(=O)[C@@H](N)CSc2ccccc21 | 86 to 89 °C
6 | O=c1nc(-c2ccccc2)c2cc([N+](=O)[O-])ccc2n1CC1CC2CCC1C2 (stereo unspecified) | 160 °C
7 | CC1(C)CC(OC(=O)c2ccc(CN(O)Cc3ccc(C(=O)OC4CC(C)(C)N(OC5CCCCC5)C(C)(C)C4)cc3)cc2)CC(C)(C)N1OC1CCCCC1 | 163 to 166 °C
8 | CC(=O)OC1CCC2(C)C(=CCC3C2CCC2(C)C(C(C)CCC(OC(C)=O)C(C)(C)OC(C)=O)CCC32)C1 (stereo unspecified) | 121 to 122 °C
9 | Cc1nc2c3c(c(C(=O)N(C)C)cc2n1C)CC[C@@H](c1ccccc1F)O3 | 199 to 201 °C
10 | NC(=O)n1nc(-c2ccco2)cc1N | 145 °C
11 | CN1CCN(c2cccc3c2C[C@H](NC(=O)c2ccc(C#N)cc2)CC3)CC1 | 184 to 186 °C
12 | C#CCN(c1ccc(C(=O)OC(C)(C)C)cc1)C1CCc2cc3nc(C)[nH]c(=O)c3cc21 (racemic) | 244 to 246 °C
13 | Cc1sc(C(=O)OCc2ccc3c(c2)OCO3)cc1NC(=O)NCc1ccccc1 | 216 to 217 °C
14 | O=C(O)C1Oc2cc(Cl)c(S(=O)(=O)c3ccc4c(c3)OCO4)cc2O1 (stereo unspecified) | 182 to 184 °C
15 | CC1(C)C(=O)N(c2ccc(C#N)c(C(F)(F)F)c2)C(=O)N1C(=O)c1ccccc1 | 179 to 180 °C
16 | CC(C)(O)c1ccc(N2CCN(c3ccncc3)CC2)cc1 | 234 to 235 °C
17 | COc1ccc(C(=O)c2ccncc2)cc1OC | 117 to 118 °C
18 | FC(F)(F)c1nc2cc(Cl)c(Cl)cc2[nH]1 | 225 to 230 °C
19 | FC(F)Oc1ccc2c(Cc3c(Cl)cncc3Cl)nnc(N3CCOCC3)c2c1 | 129 to 131 °C
20 | CON=C(N)Nc1nc(C)nc(OC)n1 | 142 °C
21 | COCCOc1cc(OC)c(C(CC(=O)Nc2cc(C(N)=O)ccc2C(C)(C)C)CC(C)C)cc1Cl (stereo unspecified) | 178 to 179 °C
22 | CCCc1c(OCCCOc2ccc(NC(=O)c3nnn[nH]3)cc2)ccc(C(C)=O)c1O | 200 to 202 °C
23 | CC(c1ccc(OCCO)cc1)(c1ccc(OCCO)cc1)c1ccc(OCCO)cc1 | 78 to 81 °C
24 | O=c1[nH]nc2ccc(-c3ccccc3)nn12 | 255 to 257 °C
25 | N#CCC1CC(c2ccccc2)=NO1 (stereo unspecified) | 79 to 80.5 °C
26 | CNc1nc(-c2cccc(-c3cncc(OC)c3)c2)c2cc(OC)c(OC)cc2n1 | 225 to 227 °C

Row | Structure (SMILES) | melting point
27 | CCC1(CC)OC(c2ccc(S(C)(=O)=O)cc2)=C(c2ccc(OC)c(F)c2)C1=O | 183 to 184 °C
28 | CCNC(=O)/C=C(C)/C=C/C(F)=C(C)/C=C/c1c(C)sc(C)c1C | 167 to 171 °C
29 | OC1CCc2cnc3c(c21)CCO3 (stereo unspecified) | 130 to 131 °C
30 | Cc1cc(C)cc(-c2nc(N)sc2-c2ccnc(NCc3ccccc3)c2)c1 | 99 to 102 °C
31 | CN(CCF)c1ccc2cc(-c3nc4ccccc4s3)c(=O)oc2c1 | 231 to 233 °C
32 | COc1ccc(-c2ncn(CCCCCCCC(=O)O)c2-c2ccc(OC)cc2)cc1 | 142 to 143 °C
33 | COCCn1nc(C(N)=O)cc1CC(C)(C)C#N | 130 to 131 °C
34 | Cc1cc(-c2ccc(O)cc2)ccc1C=NO | 195 to 197 °C
35 | CCc1cccc(CC)c1NC(=O)NCC1(c2ccccc2)CCCC1 | 165 to 167 °C
36 | CC(C)OC(=O)c1cc(Cl)c(Cl)c(-c2ccccc2)n1 | 94 to 96 °C
37 | NCC(CN)(CN)CN | 70 °C
38 | C=CC[C@@H](C(=O)N[C@H](C(=O)OCc1ccccc1)C(C)(C)C)[C@@H]1OC(C)(C)OC1=O | 67 to 70 °C
39 | CC(C)(C)OC(=O)N1CCC(N(Cc2ccccc2)S(N)(=O)=O)CC1 | 140 to 142 °C
40 | COc1cc(C(C)C)ccc1C1(O)C(=O)c2ccc(N)c(N)c2C1=O (stereo unspecified) | 272 to 274 °C
41 | CNc1cc(Cl)cc(Cl)c1[N+](=O)[O-] | 120 °C
42 | Cc1nc(CN)c2n1-c1ccc(Cl)cc1C(c1ccccc1)=NC2 | 217 to 219 °C
43 | O=c1c2c(Cc3ccccc3C(F)(F)F)n[nH]c2c2cccnc2n1-c1cccc(C(F)(F)F)c1 | 260 to 264 °C
44 | N#Cc1c2c(c3c(c1N1CCCCC1)CCc1ccccc1-3)-c1ccccc1C2 | 170 to 172 °C
45 | Clc1cccc(-n2ccnc2)n1 | 71 to 73 °C
46 | CN=C(NC#N)NCCSCc1ncccc1Br | 114 to 116 °C
47 | COC(=O)C(C#N)=C(C=CN(C)C)c1ccc(OC)cc1 | 175 to 178 °C
48 | COC(=O)C1=C(C)NC(C)=C(P2(=O)OC(C)CC(C)O2)C1c1cccc([N+](=O)[O-])c1 (stereo unspecified) | 225 to 226 °C
49 | CC(CCCc1ccc(F)cc1)c1cc(O)c2c3c(c(=O)oc2c1)CCC3 (stereo unspecified) | 133 to 135 °C
50 | CCOC(=O)C(NC=O)=C1CC2CCC(C1)N2C(=O)OCc1ccccc1 | 124 °C
51 | Cc1cc2c(cc1C)CC(C)NC(=O)C2 (stereo unspecified) | 226 to 227 °C
